From patent US10583109B2, “Use of silver(I) complexes as anticancer agents” (University of Johannesburg, priority 2012, dated 2020) come the findings set out here.

What all share (type): cell-based
For series [1], the system named is SNO-oesophageal cancer cells. Put plainly: Morphological features of SNO-oesophageal cancer cells by inverse light microscopy. The settings on record: 10 μM, 24 hours of treatment. As to the method: Morphological studies were done by means of an Axiovert 25 inverted microscope (Carl Zeiss, Göttingen, Germany) with Axio Vision 3.1 software (Carl Zeiss, Göttingen, Germany) using an magnification of 100×.
After 24 hours of treatment with complexes (1)-(5) including their ligands the cells were examined under said Axiovert 25 inverted light microscope. This was done to determine how the complexes of the present invention influence morphology which was compared to 100 μM Cisplatin (apoptotic control) and 15% H2O2 (necrotic control).
Light microscope images indicating the morphology of the differentially treated SNO-oesophageal cancer cells is shown in FIG. 8. An untreated control (a) including 100 μM Cisplatin (b), an apoptotic control and 15% H2O2 (c), and a necrotic control was included. Cells were treated with 10 μM silver(I) thiocyanate phosphine complexes (1)-(5) as well as their separate ligands (Ligand-1 to Ligand-5, respectively) (FIGS. 8d to 8m). Black arrows represent signs of apoptosis, while the white arrows represent signs of necrosis.
An Axiovert 25 inverted microscope was used to examine if these complexes affect the morphological features of the malignant cells in any other way. This was done at a magnification of 100× with the use of Axio Version 3.1 software (Carl Zeiss, Gottingen, Germany).
Morphological studies where done after 24 hours of treatment to determine how these compounds influence/change specific features of the malignant SNO-oesophageal cancer cells, compared to the untreated (UC) and 1% DMSO vehicle control. The treated cancer cells including their controls were examined under an Axiovert 25 inverted light microscope (Carl Zeiss, Göttingen, Germany) with Axio Vision 3.1 software (Carl Zeiss, Göttingen, Germany) using a 100× magnification. In FIG. 19, the morphology of the different controls including Ligand-10 and complexes (10)-(12) are represented. To predict the targeting mechanisms of these compounds, the treated cells were compared to 100 μM Cisplatin (apoptotic control) and 25% H2O2 (necrotic control).

For series [2], the system named is SNO-oesophageal cancer cells. The settings on record: for cells' viability: 10 µM. How it is done:
The SNO-oesophageal cancer cells were cultured in Dulbecco's modified Eagles medium (DMEM) containing 10% Foetal bovine serum (FBS), 0.8% Penicillin/Streptomycin/Fungizone and 0.2% Gentamycin. The SNO-oesophageal cancer cells were subcultured every 48 hours and incubated at 37° C. under a 5% CO2 humidified atmosphere. After 48 hours the cells were trypsinized and plated (6×10^5 cells) in 3.5 cm culture dishes and left to cultivate for 24 hours.
MCF-7 breast cancer cells, in terms of a first study, and SNO-oesophageal cancer cells, in terms of a second study, were treated with 10 μM silverthiocyanide complexes (1)-(5), as well as their ligands (Ligand-1 to Ligand-5) over a 24 hour incubation period. These complexes were dissolved in 0.1% Dimethyl sulfoxide (DMSO). The DMSO alone (vehicle control) decreased the viability with approximately 2.2%, signifying its minimal influence in cancer cell growth. For comparative purposes, 100 μM Cisplatin (CDDP) and 25% H2O2 was included which respectively serves as the apoptotic and necrotic controls. Cisplatin was prepared in 0.9% NaCl, whereas H2O2 was prepared in the supplemented DMEM media right before treatment. An untreated negative control (UT) was exposed to similar conditions as the treated cells and monitored during the experimental study.
An AlamarBlue® Viability® (Serotec, UK) assay was performed after a 24 hour treatment with complexes (1)-(5) and their ligands (Ligand-1 to Ligand-5, respectively) to evaluate the cellular effect the instant complexes (and their ligands) may have on the cancer cells. AlamarBlue® dye (10%) was incubated with trypsinized cells over a 2 hour period before the fluorescence was measured with a Synergy HT Multi-Detection Microplate reader (BioTek, Winooski, Vt.) at wavelengths of 530 nm and (excitation) and 590 nm (emission). This fluorescent based assay in particular involves the metabolic oxidation-reduction reaction of resazurin to a reduced resorufin product that is directly proportional to the amount of viable cells.
The percentage cellular viability of differentially treated SNO-oesophageal cells was determined using an AlamarBlue® assay, as depicted in FIG. 7. Different controls (grey) were included: untreated, 0.1% DMSO solvent and apoptotic control (100 μM Cisplatin) as well as the corresponding ligands (10 μM) of complexes (1)-(5). Cells were treated with silver(I) thiocyanate phosphine complexes (1)-(5) at a concentration of 10 μM. The percentages were calculated with respect to the control and error bars were constructed on the basis of Standard Error of the Mean (SEM) where n=9 except for the ligand of compound 4 (n=8). The P-values (*P<0.001 and **P<0.0001) were determined with the Student's T-test to evaluate the significant difference.
The cells were thereafter treated with complexes (6)-(9) at a concentration of 10 μM prepared in 0.1% DMSO. Treatment with either 25% H2O2 or 100 μM CDDP served as controls for necrosis and apoptosis respectively. The CDDP was prepared in 0.9% NaCl while the H2O2 was diluted with supplemented DMEM prior to treatment.
A suspension (100 μl) of the differentially treated cells was added in triplicate to a microtiter plate. In the dark, AlamarBlue® dye (10 μl) was added to each well containing a sample, followed by a 2 hour incubation in a 5% CO2 incubator at 37° C. The fluorescence was read on a Synergy HT Multi-Detection Microplate reader at a wavelength of 530 nm and (excitation) and 590 nm (emission). In terms of this study, the apoptotic control CDDP (100 μM) was included. Error bars represent the standard error of the mean (SEM) where n=9. The Student's T-test was used to determine the significant difference of the treatments with respect to DMSO (P*<0.05 and P**<0.001). The silver(I) nitrate phosphine complexes under evaluation decreased the cancer cell viability to a large extent compared to DMSO except complex (9).
SNO-oesophageal cancer cells were a gift from the University of Pretoria, RSA. […]

Series [3] has as its system SNO-oesophageal cancer cells. Put plainly: Flow cytometric analysis (Annexin-V FITC / PI) of apoptosis and/or necrosis in SNO-oesophageal cancer cells. The settings on record: 10 μM, 24 hours of treatment. As to the method:
To determine if either apoptosis or necrosis occurred, the cells were double labelled with Annexin-V FITC and Propidium Iodide (PI) by means of an Annexin-V FITC assay kit (Serotec, UK). This was done according to manufacturer's instructions with a few adjustments. Briefly, the cells (±3×10^5 cells/ml) were washed twice with cold phosphate buffered saline (PBS), followed by the addition of 100 μl 1× binding buffer. Two and a half microliters of Annexin-V along with 5 μl PI were added in the dark and was incubated for 15 minutes at room temperature. After incubation, 400 μl 1× binding buffer was added and cells were analysed using the FACSAria flow cytometer (BD Biosciences, San Jose, Calif.) with FACSDiva software (BD Biosciences, San Jose, Calif.) 492 nm (excitation) and 520 nm for Annexin and 488 nm and 575 nm(emission) for PI.
The cell membrane contains a negatively charged phosphatidylserine (PS) on the inner leaflet and is exposed when apoptosis or necrosis takes place. Annexin-V interacts with PS in both apoptotic and necrotic cells, making these cellular deaths undistinguishable. This is overcome by using PI as an alternative label that interacts with the exposed DNA of necrotic cells only, leading to the fluorescent detection of both these labels. Pie charts (FIG. 9) were constructed for all the controls (including Ligand-1 to Ligand-5) and the different silver(I) thiocyanate phosphine complexes (1)-(5).
Pie charts representing the four different flow cytometric quadrants of Annexin-V and […] to determine the mode of cellular death induced in differentially treated SNO-oesophageal cells are represented in FIG. 9. An untreated control (A), apoptotic control (B) and necrotic control (C) were included. Cells were treated with 10 μM of the different ligands including the silver(I) thiocyanate phosphine complexes (1)-(5). An average percentage was calculated for all segments where the SEM is n=3 for all treatments except for 15% H2O2 (n=2). The four segments represent the following: White segment—negative for FITC and PI, Light grey segment—positive for FITC but negative for PI, Dark grey segment—positive for PI but negative for FITC and Black segment—positive for both FITC and PI. Cells undergoing early apoptosis are represented by the light grey segment, while those of late apoptosis and primary necrosis are represented by the black segment. Necrotic cells are represented by the dark grey segment and intact viable cells are shown by the white segment.
Approximately 3×10^5 cells were washed with ice cold phosphate buffered saline solution (PBS). The cells were double labeled using an Annexin-V FITC assay kit adjusting the protocol. A 1× binding buffer (100 μl) was used to fix the cells. Annexin-V (2.5 μl) and Propidium Iodide (PI—5 μl) labels were added respectively followed by a 15 minute incubation, at room temperature, in the dark. After the incubation period, 400 μl of the 1× binding buffer was added, where counting of the cellular events was made using an FACSAria flow cytometer (BD Biosciences, San Jose, Calif.) with FACSDiva software (BD Biosciences, San Jose, Calif.). This technique in particular identifies whether predicted apoptotic cell death (or necrosis) was induced by these complexes.
As observed in FIG. 14, dot blots represent the mode of cellular death induced in the SNO-oesophageal cancer cells after 24 hours of treatment. FIG. 14(a): 0.1% DMSO, FIG. 14(b): 100 μM CDDP, FIG. 14(c): 25% H2O2, FIG. 14(d-i): complexes (6)-(9). An average percentage was calculated for all quadrants where the SEM is n=2 for all treatments. The four quadrants represent the following: Quadrant Q3 is negative for FITC and PI, Quadrant Q4 is positive for FITC but negative for PI, Quadrant Q1 is positive for PI but negative for FITC and Quadrant Q2 is positive for both FITC and PI. Cells undergoing early apoptosis are more likely to be found in Quadrant Q4 while those of late apoptosis and primary necrosis will be found in Quadrant Q2. […]

For `c1ccc(P(c2ccccc2)c2ccccc2)cc1` [Ligand-1, triphenyl phosphine, reference compound], the “signs of apoptosis (morphology)” value in series [1] is listed as “minimal”.
For the compound `Cc1ccc(P(c2ccc(C)cc2)c2ccc(C)cc2)cc1` [Ligand-2, P(p-MeC6H4)3, reference compound], in series [2], the “cells' viability” value is reported as 86.4%. In series [1], the “signs of apoptosis (morphology)” value is given as “minimal”.
As for `Fc1ccc(P(c2ccc(F)cc2)c2ccc(F)cc2)cc1` [Ligand-3, P(4-FC6H4)3, reference compound], the “signs of apoptosis (morphology)” value in series [1] is “no”.
On the same count and under the same terms, for `Clc1ccc(P(c2ccc(Cl)cc2)c2ccc(Cl)cc2)cc1` [Ligand-4, tris parachlorophenyl phosphine, reference compound] the value was “minimal”.
Take `COc1ccc(P(c2ccc(OC)cc2)c2ccc(OC)cc2)cc1` [Ligand-5, P(p-MeOC6H4)3, reference compound]: the “cells' viability” value in series [2] stood at 80.7%. For the same compound, the “signs of apoptosis (morphology)” value in series [1] was “minimal”.
With `O=[N+]([O-])[O-].[Ag+].c1ccc(P(c2ccccc2)c2ccccc2)cc1` [complex (6), AgNO3(PPh3)], the “apoptotic cell death (flow cytometry, Q4 and Q2)” value (“apoptotic cell death” below) in series [3] is reported as 20%.
As for `O=[N+]1[O][Ag]([P+](c2ccccc2)(c2ccccc2)c2ccccc2)([P+](c2ccccc2)(c2ccccc2)c2ccccc2)[O]1` [complex (7), AgNO3(PPh3)2], the “apoptotic cell death” value in series [3] came to 30.6%.
With `O=[N+]([O-])[O][Ag]([P+](c1ccccc1)(c1ccccc1)c1ccccc1)([P+](c1ccccc1)(c1ccccc1)c1ccccc1)[P+](c1ccccc1)(c1ccccc1)c1ccccc1` [complex (8), AgNO3(PPh3)3], in series [3], the “apoptotic cell death” value was 24%.
Consider [AgSCN{P(4-MeOC6H4)3}2]n [complex (5)], for which the “percentage cellular viability / toxicity” value in series [2] (10 μM, 24 hour treatment, compared to the control) was “highly toxic”. In addition, the “necrotic cell death (morphology)” value in series [1] is reported as “Necrotic cell death was also observed”.
